From PMC9234961 (Journal of Medicinal Chemistry, 2022)
pEC50: −log10 of the molar value. Like-named read-outs stand apart in the source and are kept apart here.

Columns and labels:
EDNRA = biological target: T1, EDNRA (Homo sapiens, UniProt P25101); test: SAFETYScan GPCR Calcium Flux, Agonist; type: cell-based
T1 sequence (P25101 21-427): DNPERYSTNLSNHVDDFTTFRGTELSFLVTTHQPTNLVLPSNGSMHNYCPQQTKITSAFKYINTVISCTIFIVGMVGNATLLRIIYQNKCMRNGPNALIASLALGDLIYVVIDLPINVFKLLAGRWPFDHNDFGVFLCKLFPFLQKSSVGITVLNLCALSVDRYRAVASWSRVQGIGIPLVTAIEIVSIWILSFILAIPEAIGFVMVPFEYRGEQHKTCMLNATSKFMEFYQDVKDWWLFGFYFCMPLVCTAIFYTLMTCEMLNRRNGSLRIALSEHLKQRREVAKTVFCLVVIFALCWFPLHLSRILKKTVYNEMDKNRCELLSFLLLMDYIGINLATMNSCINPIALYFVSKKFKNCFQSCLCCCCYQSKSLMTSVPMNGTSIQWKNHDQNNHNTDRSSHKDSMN
Text: Supplement jm1c02175_si_002.xlsx, sheet "SAFETYScan" | column: RC50 (uM); Max Response

kinases (468) [1] = biological target: kinases (468) (Homo sapiens, UniProt O15111); conditions: IKK-alpha (CHUK); 1000 nM
kinases (468) [2] = biological target: kinases (468) (Homo sapiens, UniProt O43353); conditions: kinase RIPK2 (Entrez RIPK2); compound concentration 1000 nM
kinases (468) [3] = biological target: kinases (468) (Homo sapiens, UniProt P00519, H396P); conditions: 1000 nM
kinases (468) [4] = biological target: kinases (468) (Homo sapiens, UniProt P08581); conditions: MET; 1000 nM
kinases (468) [5] = biological target: kinases (468) (Homo sapiens, UniProt P09619); conditions: PDGFRB; 1000 nM
kinases (468) [6] = biological target: kinases (468) (Homo sapiens, UniProt P10721, D816H); conditions: KIT(D816H); 1000 nM
kinases (468) [7] = biological target: kinases (468) (Homo sapiens, UniProt P10721, V559D); conditions: KIT(V559D); 1000 nM
kinases (468) [8] = biological target: kinases (468) (Homo sapiens, UniProt P19525); conditions: PRKR (EIF2AK2); 1000 nM
kinases (468) [9] = biological target: kinases (468) (Homo sapiens, UniProt P22607, G697C); conditions: FGFR3(G697C); 1000 nM
kinases (468) [10] = biological target: kinases (468) (Homo sapiens, UniProt P42336, H1047Y); conditions: PIK3CA(H1047Y); 1000 nM
kinases (468) [11] = biological target: kinases (468) (Homo sapiens, UniProt P42685); conditions: FRK; 1000 nM
kinases (468) [12] = biological target: kinases (468) (Homo sapiens, UniProt P51955); conditions: NEK2; 1000 nM
kinases (468) [13] = biological target: kinases (468) (Homo sapiens, UniProt P52564); conditions: MEK6 (MAP2K6); 1000 nM
kinases (468) [14] = biological target: kinases (468) (Homo sapiens, UniProt P78356); conditions: PIP5K2B (PIP4K2B); 1000 nM
kinases (468) [15] = biological target: kinases (468) (Homo sapiens, UniProt Q04912); conditions: MST1R; 1000 nM
kinases (468) [16] = biological target: kinases (468) (Homo sapiens, UniProt Q13163); conditions: MEK5 (MAP2K5); 1000 nM
kinases (468) [17] = biological target: kinases (468) (Homo sapiens, UniProt Q13164); conditions: ERK5 (MAPK7); 1000 nM
kinases (468) [18] = biological target: kinases (468) (Homo sapiens, UniProt Q14004); conditions: CDC2L5 (CDK13); 1000 nM
kinases (468) [19] = biological target: kinases (468) (Homo sapiens, UniProt Q16620); conditions: kinase TRKB (Entrez NTRK2); compound concentration 1000 nM
kinases (468) [20] = biological target: kinases (468) (Homo sapiens, UniProt Q7KZI7); conditions: MARK2; 1000 nM
kinases (468) [21] = biological target: kinases (468) (Homo sapiens, UniProt Q8NG66); conditions: NEK11; 1000 nM
kinases (468) [22] = biological target: kinases (468) (Homo sapiens, UniProt Q96D53); conditions: ADCK4; 1000 nM
kinases (468) [23] = biological target: kinases (468) (Homo sapiens, UniProt Q9H2G2); conditions: kinase SLK (Entrez SLK); compound concentration 1000 nM
kinases (468) [24] = biological target: kinases (468) (Homo sapiens, UniProt Q9NRP7); conditions: kinase STK36 (Entrez STK36); compound concentration 1000 nM
kinases (468) [25] = biological target: kinases (468) (Homo sapiens, UniProt Q9NSY1); conditions: BIKE (BMP2K); 1000 nM
kinases (468) [26] = biological target: kinases (468) (Homo sapiens, UniProt Q9UBF8); conditions: PIK4CB (PI4KB); 1000 nM
kinases (468) [27] = biological target: kinases (468) (Homo sapiens, UniProt Q9UL54); conditions: kinase TAOK2 (Entrez TAOK2); compound concentration 1000 nM
kinases (468) [28] = biological target: kinases (468) (Homo sapiens, UniProt Q9Y463); conditions: DYRK1B; 1000 nM

Chain of kinases (468) (Homo sapiens, UniProt Q04912) (Q04912 25-1400): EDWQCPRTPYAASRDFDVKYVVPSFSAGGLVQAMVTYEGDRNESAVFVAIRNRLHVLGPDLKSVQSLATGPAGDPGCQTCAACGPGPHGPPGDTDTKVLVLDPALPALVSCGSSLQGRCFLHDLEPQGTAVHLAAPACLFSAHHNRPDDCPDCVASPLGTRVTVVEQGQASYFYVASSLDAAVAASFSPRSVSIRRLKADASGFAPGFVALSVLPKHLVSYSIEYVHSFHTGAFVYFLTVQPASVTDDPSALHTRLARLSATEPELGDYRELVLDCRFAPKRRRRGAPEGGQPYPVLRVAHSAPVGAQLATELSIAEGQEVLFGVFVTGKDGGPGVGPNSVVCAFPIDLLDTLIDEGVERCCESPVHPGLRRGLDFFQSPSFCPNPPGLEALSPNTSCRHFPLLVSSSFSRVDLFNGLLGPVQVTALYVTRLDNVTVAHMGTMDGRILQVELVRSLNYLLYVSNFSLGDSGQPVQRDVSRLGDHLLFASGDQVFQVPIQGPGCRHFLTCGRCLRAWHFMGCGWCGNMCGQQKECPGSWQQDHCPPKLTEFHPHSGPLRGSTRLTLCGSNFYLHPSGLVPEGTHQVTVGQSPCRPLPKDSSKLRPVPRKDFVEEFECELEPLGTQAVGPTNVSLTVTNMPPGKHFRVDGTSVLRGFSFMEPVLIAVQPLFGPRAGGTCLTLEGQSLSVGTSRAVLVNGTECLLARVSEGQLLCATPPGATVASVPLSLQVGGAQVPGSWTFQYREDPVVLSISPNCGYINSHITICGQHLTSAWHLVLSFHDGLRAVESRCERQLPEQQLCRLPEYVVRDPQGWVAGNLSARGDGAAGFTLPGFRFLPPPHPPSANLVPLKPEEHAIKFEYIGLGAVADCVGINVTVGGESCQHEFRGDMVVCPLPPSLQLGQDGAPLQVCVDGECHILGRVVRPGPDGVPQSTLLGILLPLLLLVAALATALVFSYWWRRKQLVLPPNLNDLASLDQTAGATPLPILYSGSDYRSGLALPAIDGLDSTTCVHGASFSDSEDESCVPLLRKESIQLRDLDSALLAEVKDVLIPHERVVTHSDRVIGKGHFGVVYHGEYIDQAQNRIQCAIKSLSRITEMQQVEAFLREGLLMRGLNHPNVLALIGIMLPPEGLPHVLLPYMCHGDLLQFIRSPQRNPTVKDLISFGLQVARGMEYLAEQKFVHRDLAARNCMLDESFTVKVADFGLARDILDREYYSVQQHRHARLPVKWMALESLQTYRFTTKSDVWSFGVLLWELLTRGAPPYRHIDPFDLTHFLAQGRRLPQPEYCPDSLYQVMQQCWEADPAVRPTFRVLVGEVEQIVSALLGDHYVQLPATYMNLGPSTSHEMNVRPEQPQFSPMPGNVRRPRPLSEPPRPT
Chain of kinases (468) (Homo sapiens, UniProt O15111) (O15111 whole entry): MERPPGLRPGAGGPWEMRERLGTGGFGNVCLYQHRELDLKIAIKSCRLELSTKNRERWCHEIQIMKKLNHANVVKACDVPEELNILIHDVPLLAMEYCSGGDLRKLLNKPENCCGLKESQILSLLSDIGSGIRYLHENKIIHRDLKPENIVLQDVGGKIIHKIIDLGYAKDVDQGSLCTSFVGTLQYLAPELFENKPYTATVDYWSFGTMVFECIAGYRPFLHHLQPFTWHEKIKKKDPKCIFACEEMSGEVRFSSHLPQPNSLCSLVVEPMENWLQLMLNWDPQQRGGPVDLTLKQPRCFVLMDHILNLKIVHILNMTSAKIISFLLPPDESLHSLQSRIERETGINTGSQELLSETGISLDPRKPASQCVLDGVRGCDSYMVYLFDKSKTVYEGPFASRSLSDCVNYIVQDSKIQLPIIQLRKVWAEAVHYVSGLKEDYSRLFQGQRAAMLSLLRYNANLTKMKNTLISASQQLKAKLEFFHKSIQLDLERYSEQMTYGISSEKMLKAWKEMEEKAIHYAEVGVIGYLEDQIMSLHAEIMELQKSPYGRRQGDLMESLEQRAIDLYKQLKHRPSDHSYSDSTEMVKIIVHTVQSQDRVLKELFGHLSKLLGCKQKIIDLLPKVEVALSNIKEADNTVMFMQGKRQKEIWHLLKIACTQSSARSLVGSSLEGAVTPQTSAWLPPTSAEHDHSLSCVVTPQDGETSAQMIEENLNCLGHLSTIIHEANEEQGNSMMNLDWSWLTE
Chain of kinases (468) (Homo sapiens, UniProt P22607, G697C) (P22607 23-806 G697C): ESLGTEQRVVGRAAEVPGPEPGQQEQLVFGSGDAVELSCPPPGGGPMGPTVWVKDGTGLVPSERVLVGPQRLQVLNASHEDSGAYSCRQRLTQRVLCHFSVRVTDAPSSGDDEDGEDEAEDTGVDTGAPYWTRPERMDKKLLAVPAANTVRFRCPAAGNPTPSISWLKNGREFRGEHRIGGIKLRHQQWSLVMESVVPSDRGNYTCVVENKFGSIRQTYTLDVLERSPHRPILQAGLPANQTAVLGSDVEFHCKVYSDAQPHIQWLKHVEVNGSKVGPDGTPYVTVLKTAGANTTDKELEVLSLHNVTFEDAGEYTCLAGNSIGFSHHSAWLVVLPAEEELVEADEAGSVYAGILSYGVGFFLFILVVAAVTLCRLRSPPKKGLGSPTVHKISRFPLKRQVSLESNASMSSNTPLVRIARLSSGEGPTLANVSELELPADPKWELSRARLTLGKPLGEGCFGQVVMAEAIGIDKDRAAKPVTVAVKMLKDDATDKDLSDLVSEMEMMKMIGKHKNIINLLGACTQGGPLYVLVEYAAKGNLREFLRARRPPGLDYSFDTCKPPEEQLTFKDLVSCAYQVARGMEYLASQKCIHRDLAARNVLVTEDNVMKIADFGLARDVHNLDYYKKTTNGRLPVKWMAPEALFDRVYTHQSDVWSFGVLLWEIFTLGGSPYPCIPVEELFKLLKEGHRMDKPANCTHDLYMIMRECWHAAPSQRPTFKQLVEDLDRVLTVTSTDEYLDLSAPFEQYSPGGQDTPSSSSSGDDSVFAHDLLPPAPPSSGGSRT
Chain of kinases (468) (Homo sapiens, UniProt O43353) (O43353 whole entry): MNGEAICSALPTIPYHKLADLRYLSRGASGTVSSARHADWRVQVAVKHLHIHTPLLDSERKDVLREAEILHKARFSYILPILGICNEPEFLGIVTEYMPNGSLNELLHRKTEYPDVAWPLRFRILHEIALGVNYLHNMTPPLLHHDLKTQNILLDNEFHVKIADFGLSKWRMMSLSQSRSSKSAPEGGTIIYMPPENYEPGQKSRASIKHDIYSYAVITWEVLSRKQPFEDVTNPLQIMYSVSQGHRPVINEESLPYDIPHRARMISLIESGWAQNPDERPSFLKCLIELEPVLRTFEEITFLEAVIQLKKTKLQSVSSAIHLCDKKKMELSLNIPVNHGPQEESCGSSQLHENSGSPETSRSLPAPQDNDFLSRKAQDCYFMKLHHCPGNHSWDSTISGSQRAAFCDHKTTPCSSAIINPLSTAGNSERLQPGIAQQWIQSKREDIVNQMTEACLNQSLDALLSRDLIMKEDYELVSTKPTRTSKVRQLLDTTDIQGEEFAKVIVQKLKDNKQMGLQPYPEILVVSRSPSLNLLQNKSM
Chain of kinases (468) (Homo sapiens, UniProt Q8NG66) (Q8NG66 whole entry): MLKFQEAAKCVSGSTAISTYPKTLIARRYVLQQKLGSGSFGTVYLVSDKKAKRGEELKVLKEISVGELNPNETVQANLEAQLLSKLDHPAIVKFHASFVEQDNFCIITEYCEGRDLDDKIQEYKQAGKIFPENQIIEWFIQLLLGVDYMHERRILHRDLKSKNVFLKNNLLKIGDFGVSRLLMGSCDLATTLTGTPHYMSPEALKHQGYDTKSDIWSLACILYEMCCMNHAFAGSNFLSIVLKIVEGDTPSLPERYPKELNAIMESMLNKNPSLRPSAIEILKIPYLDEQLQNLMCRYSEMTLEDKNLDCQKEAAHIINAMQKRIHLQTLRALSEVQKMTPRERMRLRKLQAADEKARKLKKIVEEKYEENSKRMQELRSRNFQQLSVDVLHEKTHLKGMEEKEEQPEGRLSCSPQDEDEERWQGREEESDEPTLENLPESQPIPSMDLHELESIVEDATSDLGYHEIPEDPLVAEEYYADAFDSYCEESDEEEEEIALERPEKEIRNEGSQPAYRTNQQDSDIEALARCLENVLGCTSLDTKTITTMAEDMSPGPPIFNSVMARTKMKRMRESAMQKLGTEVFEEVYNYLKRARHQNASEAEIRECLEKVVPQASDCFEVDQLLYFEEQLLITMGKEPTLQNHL
Chain of kinases (468) (Homo sapiens, UniProt P10721, D816H) (P10721 26-976 D816H): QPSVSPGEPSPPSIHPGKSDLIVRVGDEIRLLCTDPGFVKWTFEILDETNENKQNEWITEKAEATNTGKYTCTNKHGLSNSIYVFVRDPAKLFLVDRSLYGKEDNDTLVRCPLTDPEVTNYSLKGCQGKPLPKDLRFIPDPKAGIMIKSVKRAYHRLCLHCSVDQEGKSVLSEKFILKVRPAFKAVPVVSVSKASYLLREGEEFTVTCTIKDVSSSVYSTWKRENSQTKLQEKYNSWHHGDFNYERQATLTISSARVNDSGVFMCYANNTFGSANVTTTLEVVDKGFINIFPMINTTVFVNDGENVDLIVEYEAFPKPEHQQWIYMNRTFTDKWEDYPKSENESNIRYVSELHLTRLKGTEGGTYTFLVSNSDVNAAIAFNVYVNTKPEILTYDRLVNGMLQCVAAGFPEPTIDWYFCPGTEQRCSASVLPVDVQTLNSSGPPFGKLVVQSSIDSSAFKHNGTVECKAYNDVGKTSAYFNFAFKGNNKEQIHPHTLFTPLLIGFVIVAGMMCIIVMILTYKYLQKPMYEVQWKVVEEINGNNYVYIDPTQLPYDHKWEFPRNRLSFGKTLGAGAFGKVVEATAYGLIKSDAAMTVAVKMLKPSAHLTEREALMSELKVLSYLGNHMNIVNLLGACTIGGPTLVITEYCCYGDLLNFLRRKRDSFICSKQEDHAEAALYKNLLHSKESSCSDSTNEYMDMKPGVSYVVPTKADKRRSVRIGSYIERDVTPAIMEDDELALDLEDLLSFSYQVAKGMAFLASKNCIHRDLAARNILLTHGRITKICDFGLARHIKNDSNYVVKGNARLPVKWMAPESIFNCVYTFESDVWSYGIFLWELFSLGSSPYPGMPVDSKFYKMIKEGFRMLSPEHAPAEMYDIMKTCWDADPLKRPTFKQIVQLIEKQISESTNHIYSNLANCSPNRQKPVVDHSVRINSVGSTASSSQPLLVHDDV
Chain of kinases (468) (Homo sapiens, UniProt P10721, V559D) (P10721 26-976 V559D): as the sequence (P10721 26-976 D816H) above, with V534D, H791D counted along it

## C[C@H]1C[C@@H](O)CN(c2ncc(Cl)c(Nc3ccc4c(c3)c3c(c(=O)n4C)OCC(F)(F)[C@H](C4CC4)N3)n2)C1 [12a CCT373566, (S)-10-((5-Chloro-2-((3R,5S)-3-hydroxy-5-methylpiperidin-1-yl)pyrimidin-4-yl)amino)-2-cyclopropyl-3,3-difluoro-7-methyl-1,2,3,4-tetrahydro-[1,4]oxazepino[2,3-c]quinolin-6(7H)-one]
EDNRA; read-out: Max Response
  Emax: 0.25%
EDNRA; read-out: RC50 (EC50)
  pEC50: < 5.00

## C[C@H]1C[C@@H](O)CN(c2ncc(Cl)c(Nc3ccc4c(c3)c3c(c(=O)n4C)OCC(F)(F)[C@H](C4CC4)N3)n2)C1 [CCT373566_9A]
Kinases (468) [1]
  Percent Control: 99%
Kinases (468) [2]
  Percent Control: 100%
Kinases (468) [3]; ABL1(H396P)-nonphosphorylated
  Percent Control: 83%
Kinases (468) [3]; ABL1(H396P)-phosphorylated
  Percent Control: 94%
Kinases (468) [4]
  Percent Control: 100%
Kinases (468) [5]
  Percent Control: 98%
Kinases (468) [6]
  Percent Control: 87%
Kinases (468) [7]
  Percent Control: 100%
Kinases (468) [8]
  Percent Control: 95%
Kinases (468) [9]
  Percent Control: 99%
Kinases (468) [10]
  Percent Control: 94%
Kinases (468) [11]
  Percent Control: 100%
Kinases (468) [12]
  Percent Control: 92%
Kinases (468) [13]
  Percent Control: 89%
Kinases (468) [14]
  Percent Control: 100%
Kinases (468) [15]
  Percent Control: 91%
Kinases (468) [16]
  Percent Control: 100%
Kinases (468) [17]
  Percent Control: 97%
Kinases (468) [18]
  Percent Control: 99%
Kinases (468) [19]
  Percent Control: 97%
Kinases (468) [20]
  Percent Control: 93%
Kinases (468) [21]
  Percent Control: 95%
Kinases (468) [22]
  Percent Control: 93%
Kinases (468) [23]
  Percent Control: 100%
Kinases (468) [24]
  Percent Control: 91%
Kinases (468) [25]
  Percent Control: 100%
Kinases (468) [26]
  Percent Control: 94%
Kinases (468) [27]
  Percent Control: 87%
Kinases (468) [28]
  Percent Control: 87%
